In patent US5208152A, “Catalysts of Diels-Alder reactions, methods and catalysts therefor” (The Scripps Research Institute, priority 1992, dated 1993):

Tested on: monoclonal catalytic antibody 1E9 (reductively methylated), secreted by hybridoma 1E9, ATCC HB 10261
Experiment: Antibody-catalyzed Diels-Alder [4+2] cycloaddition/fragmentation reaction between TCTD and N-ethylmaleimide
Format: biochemical, mouse
Excerpt: Because TCTD reacts with lysine residues on the surface of the immunoglobulins, it was necessary to reduce the nucleophilicity of the amino groups by exhaustive reductive methylation [Jentoft et al., J. Biol. Chem., 254:4359 (1979)]. […] Chemical modification of immunoglobulins in this way is likely to be of general value, as it will permit reactive molecules like epoxides, Michael acceptors or other alkylating agents to be employed as substrates for catalytic antibodies.
The methylated antibodies were assayed at 25 degrees C. for their ability to promote the Diels-Alder [4+2] cycloaddition/fragmentation reaction between TCTD and N-ethylmaleimide (NEM) in aqueous buffer (20 mM MES, 100 mM NaCl, pH 6.0) containing 10 percent acetonitrile. Cycloadditions were followed by monitoring the disappearance of TCTD at 330 nm or by analytical reverse-phase HPLC. HPLC kinetic assays were performed on a Vydac C-18 218-TP-510 reverse phase column (10 mm×25 cm, 2 mL/min, gradient elution from 100 percent H2 O to 60:40 CH3 CN:H2 O in 20 minutes, then 5 minutes at the latter solvent composition) using acetophenone as an internal standard.

Compound	apparent kcat (NEM concentration varied, 0.61 mM TCTD held constant, 25 degrees C, 20 mM MES, 100 mM NaCl, pH 6.0, 10 percent acetonitrile)	Km (NEM concentration varied, 0.61 mM TCTD held constant, 25 degrees C, 20 mM MES, 100 mM NaCl, pH 6.0, 10 percent acetonitrile, read-out: apparent (Km)NEM)	inhibition of the catalyzed reaction (preincubation of the antibody with an equimolar amount of the inhibitor)
CCN1C(=O)C=CC1=O [NEM, N-ethylmaleimide]	0.0717 ± 0.005 s⁻¹	21 ± 4 mM	
CCN1C(=O)C2C(C1=O)C1(Cl)C(Cl)=C(Cl)C2(Cl)C1(Cl)Cl (stereo not drawn) [Compound 3]			stopped the oatalyzed reaction completely
